The test system of one data set is Pneumocystis carinii. The experiment in a line: Pneumocystis carinii pneumonia in immunosuppressed rats. To be noted: eliminating P. carinii cysts in four days, dexasone-immunosuppressed rats, microscopic analysis of stained lung slides. In kind it is in vivo, Sprague-Dawley rats. The protocol: In a representative study, the effectiveness of Compound A-1a was determined. Sprague-Dawley rats (weighing approximately 250 grams) were immunosuppressed with dexasone in the drinking water (2.0 mg/L) and maintained on a low protein diet for five weeks to induce the development of pneumocystis pneumonia from a latent infection. […] Six rats (weighing approximately 150 grams) were injected twice daily for four days intravenously (I.V.) via the tail vein with Compound A-1a in 0.25 ml of vehicle (distilled water). A vehicle control was also carried out. All animals continued to receive dexasone in the drinking water and low protein diet during the treatment period. At the completion of the treatment, all animals were sacrificed, the lungs were removed and processed, and the extent of disease determined by microscopic analysis of stained slides.
In a similar experiment, except that the rats were injected intraperitoneally (I.P.) twice daily for four days, the animals were sacrificed, the lungs removed and processed, and the extent of disease determined by microscopic analysis of stained slides.

Another data set is described as follows: Solubility in water. In kind it is physicochemical.

Each structure is given as a SMILES string. Structures can show the parent of a compound that is named as a salt. Bounds are passed on as bounds.

Consider `CCC(C)CC(C)CCCCCCCCC(=O)NC1CC(O)C(O)NC(=O)C2C(O)CCN2C(=O)C(C(O)CC(N)=O)NC(=O)C(C(O)C(O)c2ccc(OP(=O)(O)O)cc2)NC(=O)C2CC(O)CN2C(=O)C(C(C)O)NC1=O` (stereo not shown) [Compound A-1a, 1-[4,5-dihydroxy-N2-(10,12-dimethyl-1-oxotetradecyl)-ornithine-4-[3,4-dihydroxy-4′-O-phosphoryl-homotyrosine]-5-[3-hydroxyglutamine]-6-[3-hydroxyproline]-echinocandin B disodium salt], for which the ED₉₀ result in the data set with Pneumocystis carinii (injected twice daily for four days intravenously (I.V.) via the tail vein) is “approximately 0.6 mg/kg”. Further, in the data set “Solubility in water”, the solubility in water is greater than 40 mg/mL.
Regarding `CCC(C)CC(C)CCCCCCCCC(=O)NC1CC(O)CNC(=O)C2C(O)CCN2C(=O)C(C(O)CC(N)=O)NC(=O)C(C(O)C(O)c2ccc(OP(=O)(O)O)cc2)NC(=O)C2CC(O)CN2C(=O)C(C(C)O)NC1=O` (stereo not shown) [Compound A-2a, 1-[4-hydroxy-N2-(10,12-dimethyl-1-oxotetradecyl)-ornithine]-4-[3-hydroxy-4′-O-phosphoryl-homotyrosine]-5-[3-hydroxyglutamine]-6-[3-hydroxyproline]echinocandin B disodium salt], the ED₉₀ result with Pneumocystis carinii (injected intraperitoneally (I.P.) twice daily for four days) is reported as “approximately 0.6 mg/kg”. This molecule displayed a solubility in the data set “Solubility in water” greater than 85 mg/mL.

By solubility is commonly meant how much of the substance goes into solution per volume.

The values above are taken from patent EP0448343A2, “Lipopeptide derivatives” (MERCK & CO. INC., priority 1990, dated 1991).
